In assay [1] the test system is NCI-H460 (large cell lung carcinoma) cells. In words: antiproliferation assay (72 h, CELLTITER 96), NCI-H460. The assay is classed as cell-based, human. As to conditions: read-out: NCI-H460 IC50. The procedure: (§1) All of the compounds shown in Table 3-Table 8 below were prepared synthetically as described in EXAMPLE I. The compounds were tested for their ability to inhibit the proliferation of human cancer cells in vitro as described in the following paragraph. Table 3-Table 8 list the IC50 values in the M14 and NCI-H460 human cancer cell lines. IC50 is defined as the concentration of compound necessary to achieve 50% of the maximum growth inhibition.
(§2) For the antiproliferation assay, NCI-H460 (large cell lung carcinoma) or M14 (amelanotic melanoma) cells were grown in RPMI-1640 with 10% FBS supplemented with L-glutamine and HEPES. Cells were seeded into 96-well plates at 5×10^2 to 5×10^4 cells/well and allowed to adhere overnight; the medium was then removed. A stock solution of test compound in DMSO was diluted in medium to generate a series of working solutions. Aliquots (100 μl) of the working solutions were then added to the appropriate test wells to expose cells to the final concentrations of compound in a total volume of 100 μl. Seven different concentrations were tested, with 2-5 wells per concentration. Camptothecin was used as a positive control; wells containing vehicle without compound were used as negative controls. Plates were kept for 72 h in a 37° C., 5% CO2 incubator. After incubation, viable cells were detected with the CELLTITER 96 AQueous Non-Radioactive Cell Proliferation Assay (Promega), and IC50 values were determined using GraphPad Prism 5 software.

Assay [2] concerns M14 (amelanotic melanoma) cells. In words: antiproliferation assay (72 h, CELLTITER 96), M14. The assay is classed as cell-based, human. The procedure: as §1, §2
Where [3] appears, read: Homo sapiens, NCI-H460, Table 7.
The mark [4] stands for this setting: Homo sapiens, NCI-H460, Table 6.
Where [5] appears, read: Homo sapiens, NCI-H460, Table 5.
Setting [6] is: Homo sapiens, NCI-H460, Table 4.

pIC50: −log10 of the molar value. Like-named read-outs stand apart in the source and are kept apart here.

With `COc1cc(F)c(C[C@H](C)[C@]23C[C@H](Cc4ccco4)C(=O)C=C2OCO3)cc1O` [Compound 113, (6S,7aR)-7a-((S)-1-(2-fluoro-5-hydroxy-4-methoxyphenyl)propan-2-yl)-6-(furan-2-ylmethyl)-7,7a-dihydrobenzo[d][1,3]dioxol-5(6H)-one], the pIC50 – broadly, the IC50 on a negative log10 scale, so that one unit is a factor of ten – was 5.60 in assay [1] (setting [3]) and 5.80 in assay [2] (Homo sapiens, Table 7).

As to `CCS[C@H]1C[C@]2([C@@H](C)Cc3ccc(OC)cc3F)OCOC2=CC1=O` [Compound 115, (6S,7aR)-6-(ethylthio)-7a-((S)-1-(2-fluoro-4-methoxyphenyl)propan-2-yl)-7,7a-dihydrobenzo[d][1,3]dioxol-5(6H)-one], the pIC50 in assay [1] (setting [3]) was less than 4.70; in assay [2] (Homo sapiens, Table 7) it was 4.95.

Consider `C=CC[C@H]1C[C@]2(C(C)Cc3cc(F)c(OC)c(F)c3)OCOC2=CC1=O` (stereo partly drawn) [Compound 55, (6S,7aR)-6-allyl-7a-(1-(3,5-difluoro-4-methoxyphenyl)propan-2-yl)-7,7a-dihydrobenzo[d][1,3]dioxol-5(6H)-one], for which the pIC50 in assay [1] (setting [4]) is 5.42; in assay [2] (Homo sapiens, Table 6) it was 5.48.

Consider `C/C=C/C[C@H]1C[C@]2([C@@H](C)Cc3ccc(OC)cc3F)OCOC2=CC1=O` [Compound 67, (6S,7aR)-6-((E)-but-2-en-1-yl)-7a-((S)-1-(2-fluoro-4-methoxyphenyl)propan-2-yl)-7,7a-dihydrobenzo[d][1,3]dioxol-5(6H)-one], for which the pIC50 is 6.60 in assay [1] (setting [3]) and 6.68 in assay [2] (Homo sapiens, Table 7).

As to `C=CC[C@H]1C[C@]2([C@@H](C)Cc3ccc(OC)nc3)OCOC2=CC1=O` [Compound 86, (6S,7aR)-6-allyl-7a-((S)-1-(6-methoxypyridin-3-yl)propan-2-yl)-7,7a-dihydrobenzo[d][1,3]dioxol-5(6H)-one], the pIC50 is 6.48 in assay [1] (Homo sapiens, NCI-H460, Table 8) and 6.74 in assay [2] (Homo sapiens, Table 8).

Turning to `C=CC[C@H]1C[C@]2([C@@H](C)Cc3ccc(O)cc3)OCOC2=CC1=O` [Compound 99, (6S,7aR)-6-allyl-7a-((S)-1-(4-hydroxyphenyl)propan-2-yl)-7,7a-dihydrobenzo[d][1,3]dioxol-5(6H)-one], the pIC50 in assay [1] (setting [5]) was less than 4.70; in assay [2] (Homo sapiens, Table 5) it was less than 4.70.

Turning to `COC[C@H]1C[C@]2([C@@H](C)Cc3cc(O)c(OC)cc3F)OCOC2=CC1=O` [Compound 65, (6R,7aR)-7a-((S)-1-(2-fluoro-5-hydroxy-4-methoxyphenyl)propan-2-yl)-6-(methoxymethyl)-7,7a-dihydrobenzo[d][1,3]dioxol-5(6H)-one], the pIC50 in assay [1] (setting [3]) was 5.92; in assay [2] (Homo sapiens, Table 7), 6.19.

Regarding `CCC[C@H]1C[C@]2([C@H](C)Cc3cc(O)c(OC)cc3F)OCOC2=CC1=O` [Compound 60], the pIC50 was 7.17 in assay [1] (setting [3]) and 8.23 in assay [2] (Homo sapiens, Table 7).

As to `C=CC[C@H]1C[C@]2([C@@H](C)Cc3ccccc3)OCOC2=CC1=O` [Compound 49], the pIC50 in assay [1] (setting [4]) is 5.01; in assay [2] (Homo sapiens, Table 6) it was 5.29.

For the compound `C/C=C/[C@H]1C[C@]2([C@@H](C)Cc3cc(O)c(OC)cc3F)OCOC2=CC1=O` [Compound 75, (6R,7aR)-7a-((S)-1-(2-fluoro-5-hydroxy-4-methoxyphenyl)propan-2-yl)-6-((E)-prop-1-en-1-yl)-7,7a-dihydrobenzo[d][1,3]dioxol-5 (6H)-one], the pIC50 in assay [1] (setting [3]) was 6.07; in assay [2] (Homo sapiens, Table 7), 6.29.

Consider `C=CC[C@H]1C[C@]2([C@@H](C)Cc3ccc(OC)cc3)OCOC2=CC1=O` [Compound 25, (6S,7aR)-6-allyl-7a-((S)-1-(4-methoxyphenyl)propan-2-yl)-7,7a-dihydrobenzo[d][1,3]dioxol-5(6H)-one], for which the pIC50 in assay [1] (setting [6]) is 7.06; in assay [2] (Homo sapiens, Table 4) it was 7.21.

For `C=CC[C@H]1C[C@]2([C@@H](C)Cc3ccc(NC(C)=O)c(F)c3)OCOC2=CC1=O` [Compound 102, N-(4-((S)-2-((3aR,55)-5-allyl-6-oxo-3a,4,5,6-tetrahydrobenzo[d][1,3]dioxol-3a-yl)propyl)-2-fluorophenyl)acetamide], the pIC50 in assay [1] (Table 5) and in assay [2] (Table 5) was less than 4.70 throughout.

With `C=CC[C@H]1C[C@]2([C@H](C)Cc3ccc(OC)c(CO)c3)OCOC2=CC1=O` [Compound 28, (6S,7aR)-6-allyl-7a-((R)-1-(3-(hydroxymethyl)-4-methoxyphenyl)propan-2-yl)-7,7a-dihydrobenzo[d][1,3]dioxol-5(6H)-one], the pIC50 is 5.38 in assay [1] (setting [6]) and 5.00 in assay [2] (Homo sapiens, Table 4).

Turning to `CC[C@H]1C[C@]2([C@H](C)Cc3cc(F)c(OC)cc3F)OCOC2=CC1=O` [Compound 58], the pIC50 is 6.36 in assay [1] (setting [3]) and 6.54 in assay [2] (Homo sapiens, Table 7).

With `C=CC[C@H]1C[C@]2(C(C)Cc3ccc(OC)c(N)c3)OCOC2=CC1=O` (stereo partly drawn) [Compound 34, (6S,7aR)-6-allyl-7a-(1-(3-amino-4-methoxyphenyl)propan-2-yl)-7,7a-dihydrobenzo[d][1,3]dioxol-5(6H)-one], the pIC50 is 6.74 in assay [1] (setting [6]) and 7.31 in assay [2] (Homo sapiens, Table 4).

`C=CC[C@H]1C[C@]2(C(C)Cc3ccc(OC)cc3OC)OCOC2=CC1=O` (stereo partly drawn) [Compound 52, (6S,7aR)-6-allyl-7a-(1-(2,4-dimethoxyphenyl)propan-2-yl)-7,7a-dihydrobenzo[d][1,3]dioxol-5(6H)-one]: the pIC50 was 4.82 in assay [1] (setting [4]) and 4.82 in assay [2] (Homo sapiens, Table 6).

With `C=CC[C@H]1C[C@]2([C@@H](C)Cc3ccc(OC)c(NC(C)=O)c3)OCOC2=CC1=O` [Compound 35, N-(5-((S)-2-((3aR,5S)-5-allyl-6-oxo-3a,4,5,6-tetrahydrobenzo[d][1,3]dioxol-3a-yl)propyl)-2-methoxyphenyl)acetamide], the pIC50 in assay [1] (setting [6]) was 6.51; in assay [2] (Homo sapiens, Table 4), 7.07.

Take `C=CC[C@H]1C[C@]2([C@@H](C)Cc3ccc(N(C)C(C)=O)cc3)OCOC2=CC1=O` [Compound 103, N-(4-((S)-2-((3aR,5S)-5-allyl-6-oxo-3a,4,5,6-tetrahydrobenzo[d][1,3]dioxol-3a-yl)propyl)phenyl)-N-methylacetamide]: the pIC50 in assay [1] (setting [5]) was less than 4.70; in assay [2] (Homo sapiens, Table 5), less than 4.70.

Regarding `C=CCNc1cc(CC(C)[C@]23C[C@H](CC=C)C(=O)C=C2OCO3)ccc1OC` (stereo partly drawn) [Compound 36, (6S,7aR)-6-allyl-7a-(1-(3-(allylamino)-4-methoxyphenyl)propan-2-yl)-7,7a-dihydrobenzo[d][1,3]dioxol-5(6H)-one], the pIC50 in assay [1] (setting [6]) is 5.72; in assay [2] (Homo sapiens, Table 4) it was 6.14.

Turning to `C=CC[C@H]1C[C@]2([C@H](C)Cc3ccc(OCCOC)c(F)c3)OCOC2=CC1=O` [Compound 101, (6S,7aR)-6-allyl-7a-((R)-1-(3-fluoro-4-(2-methoxyethoxy)phenyl)propan-2-yl)-7,7a-dihydrobenzo[d][1,3]dioxol-5(6H)-one], the pIC50 in assay [1] (setting [5]) was less than 4.70; in assay [2] (Homo sapiens, Table 5) it was less than 4.70.

With `COc1ccc(CC(C)[C@]23C[C@H](CCCF)C(=O)C=C2OCO3)cc1OC` (stereo partly drawn) [Compound 107, (6S,7aR)-7a-(1-(3,4-dimethoxyphenyl)propan-2-yl)-6-(3-fluoropropyl)-7,7a-dihydrobenzo[d][1,3]dioxol-5(6H)-one], the pIC50 was less than 4.70 in assay [1] (setting [3]) and less than 4.70 in assay [2] (Homo sapiens, Table 7).

`C=CC[C@H]1C[C@]2([C@H](C)Cc3ccc(N(C)C)c(F)c3)OCOC2=CC1=O` [Compound 46, (6S,7aR)-6-allyl-7a-((R)-1-(4-(dimethylamino)-3-fluorophenyl)propan-2-yl)-7,7a-dihydrobenzo[d][1,3]dioxol-5(6H)-one]: the pIC50 is 5.85 in assay [1] (setting [5]) and 6.19 in assay [2] (Homo sapiens, Table 5).

Take `COc1cc(F)c(C[C@H](C)[C@]23C[C@H](CCSC)C(=O)C=C2OCO3)cc1O` [Compound 76, (6R,7aR)-7a-((S)-1-(2-fluoro-5-hydroxy-4-methoxyphenyl)propan-2-yl)-6-(2-(methylthio)ethyl)-7,7a-dihydrobenzo[d][1,3]dioxol-5(6H)-one]: the pIC50 in assay [1] (setting [3]) is 6.35; in assay [2] (Homo sapiens, Table 7), 6.52.

Consider `C=CC[C@H]1C[C@]2([C@@H](C)Cc3cc(N)c(OC)cc3F)OCOC2=CC1=O` [Compound 17, (6S,7aR)-6-allyl-7a-((S)-1-(5-amino-2-fluoro-4-methoxyphenyl)propan-2-yl)-7,7a-dihydrobenzo[d][1,3]dioxol-5(6H)-one], for which the pIC50 in assay [1] (Homo sapiens, NCI-H460, Table 3) is 6.80; in assay [2] (Homo sapiens, Table 3), 7.54.

On to `C=CC[C@H]1C[C@]2([C@H](C)Cc3ccc(OC)cc3C)OCOC2=CC1=O` [Compound 51, (6S,7aR)-6-allyl-7a-((R)-1-(4-methoxy-2-methylphenyl)propan-2-yl)-7,7a-dihydrobenzo[d][1,3]dioxol-5(6H)-one], for which the pIC50 in assay [1] (setting [4]) is 6.11; in assay [2] (Homo sapiens, Table 6), 6.55.

For the compound `COc1cc(F)c(C[C@H](C)[C@]23C[C@H](Cc4ccccc4)C(=O)C=C2OCO3)cc1O` [Compound 66, (6S,7aR)-6-benzyl-7a-((S)-1-(2-fluoro-5-hydroxy-4-methoxyphenyl)propan-2-yl)-7,7a-dihydrobenzo[d][1,3]dioxol-5(6H)-one], the pIC50 is 5.59 in assay [1] (setting [3]) and 5.80 in assay [2] (Homo sapiens, Table 7).

The values are drawn from patent US9562031B1, “Phenethyldihydrobenzodioxolones and methods of use” (Sequoia Sciences, Inc., priority 2015, dated 2017).
